# Measured values taken from patent US20250144067A1, “PERSONALIZED STARVATION THERAPY FOR CANCER” (Faeth Therapeutics, Inc., priority 2021, published 2025).
# Counter-ions that a name gives are not always drawn. Like-named read-outs stand apart in the source and are kept apart here.
# How the values were obtained:
# [1] = test system: NCI-H292 lung cancer cells; experiment: FDA drug screening, complete media vs cholesterol-free media without statin (TABLE 1); type: cell-based, human
# [2] = test system: NCI-H292 lung cancer cells; experiment: FDA drug screening, complete media vs cholesterol-free media with simvastatin (TABLE 2); type: cell-based, human
# [3] = NCI-H292 cells, cholesterol-free media without statin, FDA drug library screen
# [4] = NCI-H292 cells, complete media, FDA drug library screen
# [5] = complete vs cholesterol-free media, >0 enhanced anti-cancer activity, about 0 neutral, <0 antagonist
# [6] = NCI-H292 cells, FDA library drug in cholesterol-free media with simvastatin 0.04 μM
# [7] = NCI-H292 cells, FDA library drug in complete media
# [8] = complete media vs cholesterol-free media + simvastatin (0.04 μM), >0 enhanced anti-cancer activity, about 0 neutral, <0 antagonist
# [9] = Complete minus Cholesterol-free, greater than 0 enhanced anti-cancer activity, about 0 neutral, below 0 antagonists
# [10] = NCI-H292 cells in cholesterol-free media without statin
# [11] = NCI-H292 cells in complete media
# [12] = Complete minus Cholesterol-free, >0 enhanced anti-cancer activity, about 0 neutral, <0 antagonist
# [13] = NCI-H292 cells, cholesterol-free media with simvastatin 0.04 μM, cell growth value in FDA drug screen
# [14] = NCI-H292 cells, complete media, cell growth value in FDA drug screen
# [15] = complete media minus cholesterol-free media + simvastatin, >0 enhanced anti-cancer activity, about 0 neutral, <0 antagonist
# [16] = Complete minus Cholesterol-free, greater than 0 enhanced anti-cancer activity, about 0 neutral, below 0 antagonist
# [17] = NCI-H292 cells, FDA drug library screen, cholesterol-free media without statin
# [18] = NCI-H292 cells, FDA drug library screen, complete media
# [19] = NCI-H292 cells, FDA drug library screen, cholesterol-free media with simvastatin 0.04 μM
# [20] = Complete minus Cholesterol-free, […]
# [21] = NCI-H292 cells, cholesterol-free media with simvastatin 0.04 μM, FDA drug library screen (TABLE 2)
# [22] = NCI-H292 cells, complete media, FDA drug library screen (TABLE 2)
# [23] = complete media minus cholesterol-free media + simvastatin (0.04 μM), […]
# [24] = complete media vs cholesterol-free media + simvastatin (0.04 μM), […]
# [25] = NCI-H292 cells, cholesterol-free media without statin
# [26] = complete vs cholesterol-free media, greater than 0 enhanced anti-cancer activity, about 0 neutral, below 0 antagonists
# [27] = complete vs cholesterol-free media, […]
# [28] = NCI-H292 cells, drug in cholesterol-free media with simvastatin 0.04 μM
# [29] = NCI-H292 cells, drug in complete media
compound,measurement,setting,value
CCCC1O[C@@H]2C[C@H]3[C@@H]4CCC5=CC(=O)C=C[C@]5(C)[C@H]4[C@@H](O)C[C@]3(C)[C@]2(C(=O)CO)O1 (stereo partly drawn) [Budesonide],Cholesterol-free,[1]; [3],0.6924
same,Complete,[1]; [4],1.034
same,Difference,[1]; [5],0.34
same,Cholesterol-free media + simvastatin (0.04 μM),[2]; [6],1.254
same,Complete Media,[2]; [7],0.6405
same,Difference,[2]; [8],−0.61
CCC1(c2ccccc2)NC(=O)N(C)C1=O (stereo not drawn) [Mephenytoin],Difference,[1]; [9],−0.62
same,Cholesterol-free,[1]; [10],1.604
same,Complete,[1]; [11],0.9878
same,Cholesterol-free media + simvastatin (0.04 μM),[2]; [6],1.274
same,Complete Media,[2]; [7],1.003
same,Difference,[2]; [8],−0.27
NC(=O)c1cnc2[nH]ccc2c1N[C@@H]1[C@@H]2CC3C[C@H]1C[C@@](O)(C3)C2 [Peficitinib],Difference,[1]; [12],−0.03
same,Cholesterol-free,[1]; [3],1.336
same,Complete,[1]; [4],1.303
same,Cholesterol-free media + simvastatin (0.04 μM),[2]; [13],0.6674
same,Complete Media,[2]; [14],0.776
same,Difference,[2]; [15],0.11
CN(C)/N=N/c1[nH]cnc1C(N)=O [Dacarbazine],Difference,[1]; [16],−0.11
same,Cholesterol-free,[1]; [17],1.191
same,Complete,[1]; [18],1.077
same,Cholesterol-free media + simvastatin (0.04 μM),[2]; [19],1.089
same,Complete Media,[2]; [18],0.9656
same,Difference,[2]; [8],−0.12
COc1ccc2cc3[n+](cc2c1OC)CCc1cc2c(cc1-3)OCO2.[Cl-] [Berberine (chloride)],Difference,[1]; [16],−0.09
same,Cholesterol-free,[1]; [17],0.2752
same,Complete,[1]; [18],0.1873
same,Cholesterol-free media + simvastatin (0.04 μM),[2]; [13],0.3544
same,Complete Media,[2]; [14],0.3946
same,Difference,[2]; [15],0.04
COc1cc(NS(=O)(=O)c2ccc(N)cc2)ncn1 [Sulfamonomethoxine],Difference,[1]; [9],−0.48
same,Cholesterol-free,[1]; [10],1.378
same,Complete,[1]; [11],0.8971
same,Cholesterol-free media + simvastatin (0.04 μM),[2]; [6],1.013
same,Complete Media,[2]; [7],0.7465
same,Difference,[2]; [8],−0.27
O=C(O)/C=C/c1ccc(Cn2ccnc2)cc1 [Ozagrel (hydrochloride)],Cholesterol-free,[1]; [3],0.9304
same,Complete,[1]; [4],1.021
same,Difference,[1]; [5],0.09
same,Cholesterol-free media + simvastatin (0.04 μM),[2]; [19],1.247
same,Complete Media,[2]; [18],1.131
same,Difference,[2]; [8],−0.12
Cc1c(C(=O)Nc2ccc(S(C)(=O)=O)cc2)cn(CCO)c1-c1ccccc1C(F)(F)F [Esaxerenone],Difference,[1]; [20],−0.14
same,Cholesterol-free,[1]; [17],1.29
same,Cholesterol-free media + simvastatin (0.04 μM),[2]; [21],0.9763
same,Complete Media,[2]; [22],0.9118
same,Difference,[2]; [23],−0.06
CN(C)CCc1c[nH]c2ccc(Cn3cncn3)cc12.O=C(O)c1ccccc1 [Rizatriptan (benzoate)],Difference,[1]; [20],0.02
same,Cholesterol-free,[1]; [3],0.4266
same,Complete,[1]; [4],0.447
same,Cholesterol-free media + simvastatin (0.04 μM),[2]; [19],1.054
same,Complete Media,[2]; [18],0.9799
same,Difference,[2]; [24],−0.07
COC(=O)N[C@H](C(=O)N1CCC[C@H]1c1nc(-c2ccc(-c3ccc(-c4c[nH]c([C@@H]5CCCN5C(=O)[C@@H](NC(=O)OC)C(C)C)n4)cc3)cc2)c[nH]1)C(C)C [Daclatasvir (dihydrochloride)],Difference,[1]; [12],0.02
same,Cholesterol-free,[1]; [3],1.025
same,Complete,[1]; [4],1.046
same,Cholesterol-free media + simvastatin (0.04 μM),[2]; [6],1.149
same,Complete Media,[2]; [7],0.7215
same,Difference,[2]; [8],−0.43
C[N+]1(C)[C@@H]2CC(OC(=O)C(O)(c3cccs3)c3cccs3)C[C@H]1[C@@H]1O[C@@H]12.[Br-] (stereo partly drawn) [Tiotropium (Bromide)],Cholesterol-free,[1],1.101
same,Complete,[1],0.8685
same,Difference,[1],−0.23
same,Cholesterol-free media + simvastatin (0.04 μM),[2],2.468
same,Complete Media,[2],1.196
same,Difference,[2],−1.27
C[C@]12CC[C@@H]3c4ccc(O)cc4CC[C@H]3[C@@H]1CC[C@@H]2O [Estradiol],Difference,[1]; [12],0.06
same,Cholesterol-free,[1]; [3],0.707
same,Complete,[1]; [4],0.7678
same,Cholesterol-free media + simvastatin (0.04 μM),[2]; [19],1.106
same,Complete Media,[2]; [18],1.409
same,Difference,[2]; [15],0.30
CO/N=C(\C(=O)N[C@@H]1C(=O)N2C(C(=O)OCOC(=O)C(C)(C)C)=C(/C=C\c3scnc3C)CS[C@H]12)c1csc(N)n1 [Cefditoren (Pivoxil)],Difference,[1]; [12],−0.05
same,Cholesterol-free,[1]; [3],1.012
same,Complete,[1]; [4],0.9665
same,Cholesterol-free media + simvastatin (0.04 μM),[2]; [13],0.7736
same,Complete Media,[2]; [14],0.8262
same,Difference,[2]; [15],0.05
Aliskiren (hemifumarate),Cholesterol-free,[1]; [25],1.354
same,Complete,"[1]; NCI-H292 cells, complete media",0.9547
same,Difference,[1]; [26],−0.40
same,Cholesterol-free media + simvastatin (0.04 μM),[2]; [13],0.7275
same,Complete Media,[2]; [14],0.8337
same,Difference,[2]; [15],0.11
"Angiotensin II 5-valine (DRVYVHPF; Angiotensin-2; UniProt P01019 25-32, looked up, variant I5V)",Cholesterol-free,[1]; [3],0.8655
same,Complete,[1]; [4],1.09
same,Difference,[1]; [27],0.22
same,Cholesterol-free media + simvastatin (0.04 μM),[2]; [19],2.07
same,Difference,[2]; [23],−0.98
CC[C@H]1OC(=O)[C@H](C)[C@@H](O[C@H]2C[C@@](C)(OC)[C@@H](O)[C@H](C)O2)[C@H](C)[C@@H](O[C@@H]2O[C@H](C)C[C@H](N(C)C)[C@H]2O)[C@](C)(O)C[C@@H](C)C(=O)[C@H](C)[C@H]2OC(=O)O[C@@]21C [Davercin],Cholesterol-free,[1]; [3],0.5403
same,Complete,[1]; [4],0.9622
same,Difference,[1]; [27],0.42
same,Cholesterol-free media + simvastatin (0.04 μM),[2]; [19],1.064
same,Complete Media,[2]; [18],0.9657
same,Difference,[2]; [24],−0.10
CC(=O)Oc1ccccc1C(=O)O [Aspirin],Cholesterol-free,[1]; [25],1.474
same,Complete,"[1]; NCI-H292 cells, complete media",1.02
same,Difference,[1]; [26],−0.45
same,Cholesterol-free media + simvastatin (0.04 μM),[2]; [28],1.19
same,Complete Media,[2]; [29],0.9812
same,Difference,[2]; [8],−0.21
O=C(O[C@H]1CN2CCC1CC2)N1CCc2ccccc2[C@@H]1c1ccccc1 [Solifenacin (hydrochloride)],Cholesterol-free,[1]; [25],1.128
same,Complete,"[1]; NCI-H292 cells, complete media",0.8222
same,Difference,[1]; [26],−0.31
same,Cholesterol-free media + simvastatin (0.04 μM),[2]; [13],0.865
same,Complete Media,[2]; [14],0.978
same,Difference,[2]; [15],0.11
C[Se]CC[C@H](N)C(=O)O [L-SelenoMethionine],Difference,[1]; [9],−0.92
same,Cholesterol-free,[1]; [10],2.252
same,Complete,[1]; [11],1.327
same,Cholesterol-free media + simvastatin (0.04 μM),[2]; [19],1.886
same,Complete Media,[2]; [18],1.795
same,Difference,[2]; [8],−0.09
Sodium tauroglycocholate,Difference,[1]; [20],−0.95
same,Cholesterol-free,[1]; [10],1.712
same,Complete,[1]; [11],0.7634
same,Cholesterol-free media + simvastatin (0.04 μM),[2]; [6],1.256
same,Complete Media,[2]; [7],0.9729
same,Difference,[2]; [24],−0.28
Cc1ccc(Nc2nccc(N(C)c3ccc4c(C)n(C)nc4c3)n2)cc1S(N)(=O)=O [Pazopanib],Difference,[1]; [12],0.02
same,Cholesterol-free,[1]; [3],1.084
same,Complete,[1]; [4],1.105
same,Cholesterol-free media + simvastatin (0.04 μM),[2]; [19],1.156
same,Complete Media,[2]; [18],1.457
same,Difference,[2]; [15],0.30
C#Cc1cccc(Nc2ncnc3cc(OCCOC)c(OCCOC)cc23)c1 [Erlotinib],Difference,[1]; [16],−0.17
same,Cholesterol-free,[1]; [17],0.6096
same,Complete,[1]; [18],0.4429
same,Cholesterol-free media + simvastatin (0.04 μM),[2]; [21],0.5219
same,Complete Media,[2]; [22],0.4599
same,Difference,"[2]; complete media minus cholesterol-free media + simvastatin (0.04 μM), >0 enhanced anti-cancer activity, about 0 neutral, <0 antagonist",−0.06
CC(=O)OCC(=O)[C@@]12OC3(CCCC3)O[C@@H]1C[C@H]1[C@@H]3CCC4=CC(=O)C=C[C@]4(C)[C@@]3(F)[C@@H](O)C[C@@]12C [Amcinonide],Difference,[1]; [16],−0.16
same,Cholesterol-free,[1]; [17],1.081
same,Complete,[1]; [18],0.9188
same,Cholesterol-free media + simvastatin (0.04 μM),[2]; [19],0.5029
same,Complete Media,[2]; [18],0.766
same,Difference,[2]; [15],0.26
COc1cc2c(cc1OC)C(=O)C(CC1CCN(Cc3ccccc3)CC1)C2 (stereo not drawn) [Donepezil],Difference,[1]; [12],0.03
same,Cholesterol-free,[1]; [3],0.9537
same,Complete,[1]; [4],0.9881
same,Cholesterol-free media + simvastatin (0.04 μM),[2]; [19],1.009
same,Complete Media,[2]; [18],1.62
same,Difference,[2]; [15],0.61
Clc1ccccc1CN1CCc2sccc2C1 [Ticlopidine (hydrochloride)],Difference,[1]; [9],−0.88
same,Cholesterol-free,[1]; [10],1.64
same,Complete,[1]; [11],0.7613
same,Cholesterol-free media + simvastatin (0.04 μM),[2]; [13],1.416
same,Complete Media,[2]; [14],1.478
same,Difference,[2]; [15],0.06
CCCOc1ccc(S(=O)(=O)N2CCN(CCO)CC2)cc1-c1nc2c(CCC)cn(CC)c2c(=O)[nH]1 [Mirodenafil (dihydrochloride)],Difference,[1]; [12],−0.27
same,Cholesterol-free,[1]; [25],1.435
same,Cholesterol-free media + simvastatin (0.04 μM),[2]; [19],0.7461
same,Complete Media,[2]; [18],0.9273
same,Difference,[2]; [15],0.18
S=P(N1CC1)(N1CC1)N1CC1 [Thio-TEPA],Cholesterol-free,[1],0.9267
same,Complete,[1],0.7941
same,Difference,[1],−0.13
same,Cholesterol-free media + simvastatin (0.04 μM),[2],0.6864
same,Complete Media,[2],0.8177
same,Difference,[2],0.13
O=c1[nH]c(=O)n([C@H]2C[C@H](O)[C@@H](CO)O2)cc1I [Idoxuridine],Cholesterol-free,[1]; [3],0.8751
same,Complete,[1]; [4],1.387
same,Difference,[1]; [5],0.51
same,Cholesterol-free media + simvastatin (0.04 μM),[2]; [28],1.124
same,Complete Media,[2]; [29],0.9636
same,Difference,[2]; [8],−0.16
